Results from US8314082B2, “Stilbene derivatives for ADP-ribosyl cyclase inhibitors” (Industrial Cooperation Foundation Chonbuk National …, priority 2006, dated 2012).
Where two headings read alike, the source gives them in different places.

What was measured:
[1] = system: Ang II induced cADPR production in murine mesangial cells (MMCs); test: Ang II-induced intracellular cADPR concentration in MMCs; type: cell-based; details: Mus musculus, Mesangial cell, read-out: IC50([CADPR]i, uM) (means ± SEM)
Description: [cADPR]i was measured using a cyclic enzymatic assay as described previously [Graeff et al., Biochem. J. (2002)361:379-84]. Aplysia californica ADPR-cyclase was purified from […] according to the method described [Lee et al., Cell Regul. (1991)2:203-9]. Briefly, MMCs were treated with 0.3 ml of 0.6 M perchloric acid under sonication after Ang II treatment. Precipitates were removed by centrifugation at 20,000×g for 10 min. Perchloric acid was removed by mixing the aqueous sample with a solution containing 3 volumes of 1,1,2-trichlorotrifluoroethane to 1 volume of tri-n-octlyamine. After centrifugation for 10 min at 1500×g, the aqueous layer was collected and neutralized with 20 mM sodium phosphate (pH 8). To remove all contaminating nucleotides, the samples were incubated with the following hydrolytic enzymes overnight at 37° C.: 0.44 unit/ml nucleotide pyrophosphatase, 12.5 units/ml alkaline phosphatase, 0.0625 unit/ml NADase, and 2.5 mM MgCl2 in 20 mM sodium phosphate buffer (pH 8.0). Enzymes were removed by filtration using Centricon-3 filters. To convert cADPR to NAD^+, the samples (0.1 ml/tube) were incubated with […] of a cycling reagent containing 0.3 mg/ml Aplysia ADPR-cyclase, 30 mM nicotinamide, and 100 mM sodium phosphate (pH 8) at room temperature for 30 min. The samples were further incubated with the cycling reagent (0.1 ml) containing 2% ethanol, […] alcohol dehydrogenase, 20 mM resazurin, 10 mg/ml diaphorase, 10 mM riboflavin 5′-phosphate, 10 mM nicotinamide, 0.1 mg/ml BSA, and 100 mM sodium phosphate (pH 8.0) for 2 h at room temperature. An increase in the resorufin fluorescence was measured at 544 nm excitation and 590 nm emission using a fluorescence plate reader (Molecular Devices Corp., Spectra-Max GEMINI). Various known concentrations of cADPR were also included in the cycling reaction to generate a standard curve. […] Production of cADPR as well as later sustained Ca^2+ signal in response to Ang II was inhibited with different efficacy by these small molecules (Table 1). […] The order of IC50 was 4,4′-DAHB>resveratrol>azobenzene=piceatannol>2,2′-DAHB.

[2] = system: Ang II induced [Ca^2+]i increase in murine mesangial cells (MMCs); test: Ang II-mediated [Ca2+]i increase in MMCs; type: cell-based; details: Mus musculus, Mesangial cell, later sustained Ca2+ signal induced by 150 nM Ang II, 300 s, read-out: IC50([Ca^2+]i, uM) (means ± SEM)
Description: Changes in [Ca^2+]i in MMCs were determined as described previously [Kim et al., Exp. Mol. Med. (2006)38:535-45]. Briefly, MMCs cultured on confocal dishes for 48 h at a concentration of 10^4 cells/dish were washed with Hank's balanced salt solution (HBSS) (2 mM CaCl2, 145 mM NaCl, 5 mM KCl, 1 mM MgCl2, 5 mM D-glucose, and 20 mM HEPES, pH 7.3) and then loaded with […] Fluo 3-AM (Molecular Probe, Eugene, Oreg.). Changes in Ca^2+ fluorescence were determined at 488 nm/530 nm (excitation/emission) by air-cooled argon laser system. [Ca^2+]i was calculated using a Kd of 325 nM for Fluo 3-AM by the method of Tsien et al. (1982).

STZ diabetic mice = test: Diabetic nephropathy in STZ diabetes mouse model; type: in vivo; details: 45 μg/kg i.p. once a day for 6 weeks, mean SE, n = 6
Description: Male mice, weighing 20 25 g, were made diabetic by a single intravenous injection of STZ (65 mg/kg body weight) in 0.05 M citrate buffer (pH 4.8). At the same day, the control mice were injected with the citrate buffer. After 2 days, induction of diabetes was confirmed by tail blood glucose level measurement by using the LifeScan One Touch glucometer (Johnson & Johnson). The diabetic mice (>16 mM blood glucose) were randomly divided into two groups; 6 mice per group treated with vehicle (0.1% DMSO in saline, 100 μl) or DHAB (45 μg/kg body weight in 0.1% DMSO in saline, 100 μl) and resveratrol (45 μg/kg body weight in 0.1% DMSO in saline, 100 μl) administered by intraperitoneal injection once a day for 6 weeks. The control mice were 6 mice per group treated with the vehicle. On day 39, the mice were detained in individual metabolic cages for 24 h for urine collection. On day 42, the mice were anesthetized with diethyl ether, and blood samples were taken from the abdominal aorta. Bilateral kidneys were rapidly removed and weighed. Urine was gravimetrically collected, and urinary albumin concentrations were determined with an enzyme-linked immunosorbent assay using a murine microalbuminuria kit (Albuwell; Exocell, Philadelphia, Pa.). Urine and serum creatinine levels were measured using the QuantiChrom Creatinine Assay Kit (BioAssay Systems, Hayward, Calif.), following the manufacturer's protocol.

[3] = cADPR production induced by 150 nM Ang II, 90 s, MMCs

Q: How did the IC50 [1, 3] turn out when `Oc1ccc(/C=C/c2cc(O)cc(O)c2)cc1` [Resveratrol, 3,5,4′-trihydroxy-trans-stilbene] was run?
A: Its IC50 is 5.5 ± 0.5 µM.

Q: And the IC50 [2]?
A: The IC50 was 5 ± 0.8 µM.

Q: What about the Urine output (STZ diabetic mice; 24 h metabolic cage) of the same compound?
A: The Urine output was 2.55 ± 2.09 mL/day.

Q: What about the “Body Weight” value (STZ diabetic mice) of the same compound?
A: The value was 22.6 ± 0.70 g.

Q: What about the Food intake (STZ diabetic mice) of the same compound?
A: Its Food intake is 3.12 ± 0.79 g.

Q: What about the Plasma glucose (STZ diabetic mice) of the same compound?
A: Its Plasma glucose is 441 ± 48.7 mg/dL.

Q: What about the “Urinary Albumin” value (STZ diabetic mice) of the same compound?
A: Its value is 2.97 ± 2.11 µg/day.

Q: And the Water intake (STZ diabetic mice)?
A: The Water intake was 5.67 ± 3.21 mL.

Q: What does the source list for `c1ccc(N=Nc2ccccc2)cc1` [Azobenzene]?
A: IC50 [1]: 13 ± 2.1 µM; IC50 [2]: 10 ± 1.1 µM

Q: How did the IC50 [1, 3] turn out when `Oc1cc(O)cc(/C=C/c2ccc(O)c(O)c2)c1` [Piceatannol, 3,5,3′,4′-tetrahydroxy-trans-stilbene] was run?
A: The IC50 was 8.9 ± 1.5 µM.

Q: What about the IC50 [2] of the same compound?
A: Its IC50 is 10 ± 1.7 µM.
